These are literature values, as cited in patent publication US10557153B2, “Degradation of lignocellulosic material” (DSM IP ASSETS B.V., priority 2008, dated 2020).

Common to all, as to details: S (Cellobiose) 2.5 g/L
Data set [1] relates to A. niger beta-glucosidase.
The subject of data set [2] is Trichoderma beta-glucosidase.
Data set [3] relates to Talaromyces beta-glucosidase.
In data set [4] the test system is A. oryzae beta-glucosidase.

Regarding `OC[C@H]1O[C@@H](O[C@H]2[C@H](O)[C@@H](O)C(O)O[C@@H]2CO)[C@H](O)[C@@H](O)[C@@H]1O` (stereo partly shown) [cellobiose], the “Vmax (cellobiose)” value was 400 gr/gr protein/hr in data set [1], 470 gr/gr protein/hr in data set [2], 1080 gr/gr protein/hr in data set [3] and 10131 gr/gr protein/hr in data set [4].
